We go through 1 compound from patent US20050208496A1, “Methods of testing for bronchial asthma or chronic obstructive pulmonary disease” (Genox Research, Inc., priority 2002, published 2005).

In this assay the test system is Balb/c mice. In words: OVA antigen-exposed bronchial hypersensitivity mouse model, respiratory constriction caused by acetylcholine. It counts as in vivo. As to conditions: 5 mg/kg orally.

Method: 50 μg OVA and 1 mg aluminum hydroxide (an adjuvant) were injected into the peritoneal cavity of Balb/c mice (male, seven-week old), and after 10 days the mice was sensitized with OVA under the same conditions. Then, after 10 days, 1% OVA was given by inhalation using the Ultra-nebulizer model UN701 (Azwell (Co., Ltd.)) for 30 minutes every four days three times in total. Enhanced bronchial hypersensitivity was monitored by detecting the respiratory constriction caused by acetylcholine (6.25-2000 μg/kg) using an artificial respirator (model 131, New England Medical Instruments Inc.) 24 hours after the final antigen inhalation (Nagai H. et al, Int Arch Allergy Immunol; 108: 189-195, 1995). Bronchial hypersensitivity can be induced by this treatment.

Consider `C[C@]12C=CC(=O)C=C1CC[C@@H]1[C@@H]2[C@@H](O)C[C@@]2(C)[C@H]1CC[C@]2(O)C(=O)CO` [Prednisolone], for which the “development of bronchial hypersensitivity” value was “suppressed”.
